Experimental findings from US20230150974A1 (Foghorn Therapeutics Inc., priority 2020, published 2023) are described below.

In one assay the target is T1, HiBiT-BRM (Homo sapiens, UniProt P51531).
T1 construct: expressed in transfected cells
The assay is described as follows: HiBiT-BRM cell-based degradation assay (Nano-Glo HiBiT Lytic Detection). A digest of the protocol:
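HeLa cells stably expressing HiBiT-tagged BRM were treated for 24 h, then lysed with LgBiT-containing Nano-Glo reagent and luminescence read. % degradation scaled between DMSO (high control) and 2 μM reference BRM/BRG1 degrader (low control).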
In general terms: The HiBiT peptide binds its large partner to form an active luciferase.

The next assay addresses T2, HiBit-BRG1 (Homo sapiens, UniProt P51532).
T2 construct: expressed in transfected cells
In words: HiBit-BRG1 cell-based degradation assay (Nano-Glo HiBiT Lytic Detection). A digest of the protocol: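 HeLa cells stably expressing HiBit-BRG1 plus LgBit; compound exposure 24 h; Nano-Glo HiBiT lytic luminescence; % degradation vs DMSO (0%) and 2 μM standard BRM/BRG1 degrader (100%).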

Where [1] appears, read: HeLa cells expressing HiBiT-BRM, 24 h.
The mark [2] stands for this setting: HeLa cells expressing HiBiT-BRM, 24 h; read-out: BRM HiBit Degradation IC50.
[3] abbreviates: HeLa cells expressing HiBit-BRG1 and LgBit, 24 h; read-out: BRG1 HiBit Degradation IC50.
Setting [4] is: HeLa cells expressing HiBit-BRG1 and LgBit, 24 h; read-out: BRG1 HiBit Degradation Maximum (%).

Each structure is given as a SMILES string. Like-named read-outs stand apart in the source and are kept apart here.

T1 sequence (P51531 whole entry): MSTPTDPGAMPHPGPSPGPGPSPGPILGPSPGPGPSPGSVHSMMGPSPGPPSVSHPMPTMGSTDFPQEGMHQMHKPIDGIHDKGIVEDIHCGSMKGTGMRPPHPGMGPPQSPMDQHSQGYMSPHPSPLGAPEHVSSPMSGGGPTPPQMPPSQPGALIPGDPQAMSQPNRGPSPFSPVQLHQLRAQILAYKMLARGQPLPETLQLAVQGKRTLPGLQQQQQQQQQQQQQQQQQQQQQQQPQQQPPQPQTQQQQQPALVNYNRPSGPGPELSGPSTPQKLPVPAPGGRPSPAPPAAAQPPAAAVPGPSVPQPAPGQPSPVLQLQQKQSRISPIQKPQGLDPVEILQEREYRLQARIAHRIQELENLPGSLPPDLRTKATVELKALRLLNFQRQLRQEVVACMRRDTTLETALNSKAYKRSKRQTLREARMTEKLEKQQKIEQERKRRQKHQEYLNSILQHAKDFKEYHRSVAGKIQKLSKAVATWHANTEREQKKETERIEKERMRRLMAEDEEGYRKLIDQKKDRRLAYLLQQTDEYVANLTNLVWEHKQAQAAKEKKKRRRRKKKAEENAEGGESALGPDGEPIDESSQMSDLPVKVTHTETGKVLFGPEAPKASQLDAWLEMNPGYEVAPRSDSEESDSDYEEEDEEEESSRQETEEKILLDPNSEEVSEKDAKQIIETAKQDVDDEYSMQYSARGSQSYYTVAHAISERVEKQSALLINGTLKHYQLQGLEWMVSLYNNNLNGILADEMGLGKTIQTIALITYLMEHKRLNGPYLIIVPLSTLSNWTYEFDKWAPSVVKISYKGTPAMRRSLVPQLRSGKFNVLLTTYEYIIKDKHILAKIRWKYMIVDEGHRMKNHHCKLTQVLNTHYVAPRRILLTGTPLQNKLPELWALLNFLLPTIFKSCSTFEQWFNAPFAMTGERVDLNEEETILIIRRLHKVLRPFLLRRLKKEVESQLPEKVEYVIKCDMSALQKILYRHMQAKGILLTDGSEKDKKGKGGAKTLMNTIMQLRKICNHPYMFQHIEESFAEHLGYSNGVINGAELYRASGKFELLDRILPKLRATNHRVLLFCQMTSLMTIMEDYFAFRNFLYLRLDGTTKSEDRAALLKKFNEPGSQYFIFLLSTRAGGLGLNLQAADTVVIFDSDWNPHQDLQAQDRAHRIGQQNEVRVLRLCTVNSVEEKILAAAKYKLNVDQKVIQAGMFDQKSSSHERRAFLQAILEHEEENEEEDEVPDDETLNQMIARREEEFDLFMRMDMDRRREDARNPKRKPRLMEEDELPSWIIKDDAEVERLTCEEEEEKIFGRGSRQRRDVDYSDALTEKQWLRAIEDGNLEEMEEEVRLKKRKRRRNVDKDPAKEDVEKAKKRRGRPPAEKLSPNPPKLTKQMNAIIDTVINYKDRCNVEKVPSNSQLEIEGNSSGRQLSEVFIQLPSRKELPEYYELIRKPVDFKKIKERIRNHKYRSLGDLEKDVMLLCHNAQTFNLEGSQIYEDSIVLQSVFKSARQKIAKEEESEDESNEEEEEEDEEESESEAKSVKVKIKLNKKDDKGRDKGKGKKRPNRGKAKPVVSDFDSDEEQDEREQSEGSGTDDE
T2 sequence (P51532 whole entry): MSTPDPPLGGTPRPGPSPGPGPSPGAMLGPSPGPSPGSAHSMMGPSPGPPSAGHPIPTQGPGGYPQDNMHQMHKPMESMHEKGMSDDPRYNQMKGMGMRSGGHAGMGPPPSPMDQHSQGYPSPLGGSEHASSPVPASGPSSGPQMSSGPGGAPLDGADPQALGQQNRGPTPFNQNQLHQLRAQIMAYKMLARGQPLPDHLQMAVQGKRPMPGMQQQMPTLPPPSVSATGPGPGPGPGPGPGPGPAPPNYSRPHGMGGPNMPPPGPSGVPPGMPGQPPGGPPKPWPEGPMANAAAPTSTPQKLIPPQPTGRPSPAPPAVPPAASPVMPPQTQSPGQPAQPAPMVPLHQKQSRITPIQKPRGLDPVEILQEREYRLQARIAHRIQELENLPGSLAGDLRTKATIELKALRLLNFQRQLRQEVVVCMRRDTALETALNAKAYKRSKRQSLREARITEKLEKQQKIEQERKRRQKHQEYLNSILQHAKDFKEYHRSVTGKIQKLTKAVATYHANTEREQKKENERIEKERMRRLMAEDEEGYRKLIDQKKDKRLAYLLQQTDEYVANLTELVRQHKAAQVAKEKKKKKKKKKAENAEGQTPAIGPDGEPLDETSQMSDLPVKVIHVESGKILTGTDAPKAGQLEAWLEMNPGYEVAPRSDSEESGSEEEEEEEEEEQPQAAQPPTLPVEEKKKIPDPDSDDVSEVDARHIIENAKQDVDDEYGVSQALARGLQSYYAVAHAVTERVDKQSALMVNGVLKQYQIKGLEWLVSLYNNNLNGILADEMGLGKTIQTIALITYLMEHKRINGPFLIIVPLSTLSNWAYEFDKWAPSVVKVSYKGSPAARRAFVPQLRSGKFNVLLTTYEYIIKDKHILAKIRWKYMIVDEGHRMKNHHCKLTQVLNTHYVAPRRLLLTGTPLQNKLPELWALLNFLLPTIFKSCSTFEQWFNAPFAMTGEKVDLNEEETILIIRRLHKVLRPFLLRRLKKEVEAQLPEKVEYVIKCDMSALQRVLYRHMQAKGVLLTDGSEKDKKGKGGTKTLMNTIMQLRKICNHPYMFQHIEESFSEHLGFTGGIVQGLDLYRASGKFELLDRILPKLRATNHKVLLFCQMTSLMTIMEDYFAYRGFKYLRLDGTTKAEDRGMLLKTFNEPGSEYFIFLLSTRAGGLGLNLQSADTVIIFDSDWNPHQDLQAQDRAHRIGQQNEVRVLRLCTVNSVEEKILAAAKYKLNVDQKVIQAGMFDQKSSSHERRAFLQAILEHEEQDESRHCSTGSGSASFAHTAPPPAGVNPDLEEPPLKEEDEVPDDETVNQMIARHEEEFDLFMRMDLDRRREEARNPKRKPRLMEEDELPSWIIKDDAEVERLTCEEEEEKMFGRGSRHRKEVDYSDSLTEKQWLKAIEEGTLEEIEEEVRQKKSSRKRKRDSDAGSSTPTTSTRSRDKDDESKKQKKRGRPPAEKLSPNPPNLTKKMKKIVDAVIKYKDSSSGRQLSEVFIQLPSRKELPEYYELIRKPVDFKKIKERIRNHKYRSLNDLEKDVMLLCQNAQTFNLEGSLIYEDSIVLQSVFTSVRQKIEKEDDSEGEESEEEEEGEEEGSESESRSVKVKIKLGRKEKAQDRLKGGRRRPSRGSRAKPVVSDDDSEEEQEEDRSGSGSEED

Regarding `Nc1nnc(-c2ccccc2O)cc1N1CCN(CCNC(=O)CCCCCCCCCCNc2ccc3c(c2)C(=O)N(C2CCC(=O)NC2=O)C3=O)CC1` (stereo not shown) [Compound 99, N-(2-[4-[3-amino-6-(2-hydroxyphenyl)pyridazin-4-yl]piperazin-1-yl]ethyl)-11-[[2-(2,6-dioxopiperidin-3-yl)-1,3-dioxo-2,3-dihydro-1H-isoindol-5-yl]amino]undecanamide], the “BRM HiBit Degradation Maximum (%)” value on HiBiT-BRM (setting [1]) was “C (“C” indicates maximum degradation <50%)”. Also, the DC50 at HiBiT-BRM (setting [2]) and at HiBit-BRG1 (setting [3]) was above 1 µM in each case. For the same molecule, the Dmax on HiBit-BRG1 (setting [4]) was below 50%.
`Nc1nnc(-c2ccccc2O)cc1OCCc1ccc(CNC(=O)CCCCNc2ccc3nnn(C4CCC(=O)NC4=O)c(=O)c3c2)cc1` (stereo not shown) [Compound 125, N-(4-(2-((3-amino-6-(2-hydroxyphenyl)pyridazin-4-yl)oxy)ethyl)benzyl)-5-((3-(2,6-dioxopiperidin-3-yl)-4-oxo-3,4-dihydrobenzo[d][1,2,3]triazin-6-yl)amino)pentanamide]: the “BRM HiBit Degradation Maximum (%)” value on HiBiT-BRM (setting [1]) was “C (“C” indicates maximum degradation <50%)”. Further, the DC50 on HiBiT-BRM (setting [2]) and on HiBit-BRG1 (setting [3]) was above 1 µM in each case. The Dmax on HiBit-BRG1 (setting [4]) was above 50%.
As to `Nc1nnc(-c2ccccc2O)cc1OCCc1ccc(CNC(=O)CCOCCOCCNc2cccc3c2C(=O)N(C2CCC(=O)NC2=O)C3=O)cc1` (stereo not shown) [Compound 74, N-(4-(2-((3-amino-6-(2-hydroxyphenyl)pyridazin-4-yl)oxy)ethyl)benzyl)-3-(2-(2-((2-(2,6-dioxopiperidin-3-yl)-1,3-dioxoisoindolin-4-yl)amino)ethoxy)ethoxy)propanamide], the “BRM HiBit Degradation Maximum (%)” value on HiBiT-BRM (setting [1]) was “C (“C” indicates maximum degradation <50%)”. The DC50 on HiBiT-BRM (setting [2]) and on HiBit-BRG1 (setting [3]) was above 1 µM in each case. Also, on HiBit-BRG1 (setting [4]), the Dmax was below 50%.
Consider `Cc1ncsc1-c1ccc(CNC(=O)[C@@H]2C[C@@H](O)CN2C(=O)[C@@H](NC(=O)CN2CCC(O[C@H]3C[C@H](Oc4cc(N5[C@@H]6CC[C@H]5CN(c5cc(-c7ccccc7O)nnc5N)C6)ccn4)C3)CC2)C(C)(C)C)cc1` [Compound 243, (2S,4R)-1-((2S)-2-(2-(4-((1r,3S)-3-((4-(3-(3-amino-6-(2-hydroxyphenyl)pyridazin-4-yl)-3,8-diazabicyclo[3.2.1]octan-8-yl)pyridin-2-yl)oxy)cyclobutoxy)piperidin-1-yl)acetamido)-3,3-dimethylbutanoyl)-4-hydroxy-N-(4-(4-methylthiazol-5-yl)benzyl)pyrrolidine-2-carboxamide, tri-formic acid], for which, on HiBiT-BRM (setting [1]), the “BRM HiBit Degradation Maximum (%)” value is reported as “A (“A” indicates maximum degradation ≥75%)”. For the same molecule, the DC50 on HiBiT-BRM (setting [2]) is below 0.01 µM; on HiBit-BRG1 (setting [3]) it was above 0.01 µM. The Dmax at HiBit-BRG1 (setting [4]) is above 75%.
For `Cc1ncsc1-c1ccc(CNC(=O)[C@@H]2C[C@@H](O)CN2C(=O)[C@@H](NC(=O)CCCCCCCCCNCc2ccc(CCOc3cc(-c4ccccc4O)nnc3N)cc2)C(C)(C)C)cc1` [Compound 26, (2S,4R)-1-((S)-2-(10-((4-(2-((3-amino-6-(2-hydroxyphenyl)pyridazin-4-yl)oxy)ethyl)benzyl)amino)decanamido)-3,3-dimethylbutanoyl)-4-hydroxy-N-(4-(4-methylthiazol-5-yl)benzyl)pyrrolidine-2-carboxamide], the “BRM HiBit Degradation Maximum (%)” value on HiBiT-BRM (setting [1]) is on record as “A (“A” indicates maximum degradation ≥75%)”. Also, the values for the DC50 on HiBiT-BRM (setting [2]) and at HiBit-BRG1 (setting [3]) were above 0.1 µM and above 1 µM, respectively. Moreover, the Dmax on HiBit-BRG1 (setting [4]) is below 50%.
Turning to `Nc1nnc(-c2ccccc2O)cc1OCCc1ccc(CNC(=O)NCCCOc2cccc3c2C(=O)N(C2CCC(=O)NC2=O)C3=O)cc1` (stereo not shown) [Compound 8, 1-(4-(2-((3-amino-6-(2-hydroxyphenyl)pyridazin-4-yl)oxy)ethyl)benzyl)-3-(3-((2-(2,6-dioxopiperidin-3-yl)-1,3-dioxoisoindolin-4-yl)oxy)propyl)urea], the “BRM HiBit Degradation Maximum (%)” value at HiBiT-BRM (setting [1]) is “B (“B” indicates maximum degradation ≥50%)”. Also, the DC50 is above 1 µM at HiBiT-BRM (read-out: BRM HiBit Degradation IC50; HeLa cells expressing HiBiT-BRM, 24 h); above 1 µM on HiBit-BRG1 (read-out: BRG1 HiBit Degradation IC50; HeLa cells expressing HiBit-BRG1 and LgBit, 24 h).
As to `Cc1ncsc1-c1ccc(CNC(=O)[C@@H]2C[C@H](O)CN2C(=O)[C@@H](NC(=O)CCCCCCCCCNC(=O)c2ccc(CCOc3cc(-c4ccccc4O)nnc3N)cc2)C(C)(C)C)cc1` [Compound 105, (2S,4S)-1-((S)-2-(10-(4-(2-((3-amino-6-(2-hydroxyphenyl)pyridazin-4-yl)oxy)ethyl)benzamido)decanamido)-3,3-dimethylbutanoyl)-4-hydroxy-N-(4-(4-methylthiazol-5-yl)benzyl)pyrrolidine-2-carboxamide], the “BRM HiBit Degradation Maximum (%)” value at HiBiT-BRM (setting [1]) is “C (“C” indicates maximum degradation <50%)”. The DC50 on HiBiT-BRM (setting [2]) and at HiBit-BRG1 (setting [3]) was above 1 µM each time. The Dmax on HiBit-BRG1 (setting [4]) was below 50%.
For `Nc1nnc(-c2cccc(Cl)c2O)cc1OCCc1ccc(CNCCCCCOc2cccc3c2C(=O)N(C2CCC(=O)NC2=O)C3=O)cc1` (stereo not shown) [Compound 124, 4-((5-((4-(2-((3-amino-6-(3-chloro-2-hydroxyphenyl)pyridazin-4-yl)oxy)ethyl)benzyl)amino)pentyl)oxy)-2-(2,6-dioxopiperidin-3-yl)isoindoline-1,3-dione], the “BRM HiBit Degradation Maximum (%)” value on HiBiT-BRM (setting [1]) is recorded as “C (“C” indicates maximum degradation <50%)”. In addition, the DC50 at HiBiT-BRM (setting [2]) and at HiBit-BRG1 (setting [3]) was above 1 µM throughout. Also, at HiBit-BRG1 (setting [4]), the Dmax is below 50%.
In the case of `Nc1nnc(-c2ccccc2O)cc1OCCc1ccc(C(=O)N2CCC(C3CCN(C(=O)COc4cccc5c4C(=O)N(C4CCC(=O)NC4=O)C5=O)CC3)CC2)cc1` (stereo not shown) [Compound 49, 4-(2-(1′-(4-(2-((3-amino-6-(2-hydroxyphenyl)pyridazin-4-yl)oxy)ethyl)benzoyl)-[4,4′-bipiperidin]-1-yl)-2-oxoethoxy)-2-(2,6-dioxopiperidin-3-yl)isoindoline-1,3-dione], the “BRM HiBit Degradation Maximum (%)” value on HiBiT-BRM (setting [1]) was “C (“C” indicates maximum degradation <50%)”. The DC50 on HiBiT-BRM (setting [2]) and on HiBit-BRG1 (setting [3]) was above 1 µM each time. In addition, the Dmax at HiBit-BRG1 (setting [4]) was below 50%.
Take `Cc1ncsc1-c1ccc(CNC(=O)[C@@H]2C[C@@H](O)CN2C(=O)[C@@H](NC(=O)CCN2CC(C3CCN(C(=O)c4ccc(CCOc5cc(-c6ccccc6O)nnc5N)cc4)CC3)C2)C(C)(C)C)cc1` [Compound 199, (2S,4R)-1-((S)-2-(3-(3-(1-(4-(2-((3-amino-6-(2-hydroxyphenyl)pyridazin-4-yl)oxy)ethyl)benzoyl)piperidin-4-yl)azetidin-1-yl)propanamido)-3,3-dimethylbutanoyl)-4-hydroxy-N-(4-(4-methylthiazol-5-yl)benzyl)pyrrolidine-2-carboxamide]: at HiBiT-BRM (setting [1]), the “BRM HiBit Degradation Maximum (%)” value was “C (“C” indicates maximum degradation <50%)”. Besides, the DC50 at HiBiT-BRM (setting [2]) and at HiBit-BRG1 (setting [3]) was above 1 µM in each case. Besides, on HiBit-BRG1 (setting [4]), the Dmax is below 50%.
Turning to `Nc1nnc(-c2ccccc2O)cc1N1CCN(CC(=O)NCCCCNc2ccc3c(c2)C(=O)N(C2CCC(=O)NC2=O)C3=O)CC1` (stereo not shown) [Compound 103, 2-[4-[3-amino-6-(2-hydroxyphenyl)pyridazin-4-yl]piperazin-1-yl]-N-(4-[[2-(2,6-dioxopiperidin-3-yl)-1,3-dioxo-2,3-dihydro-1H-isoindol-5-yl]amino]butyl)acetamide], at HiBiT-BRM (setting [1]), the “BRM HiBit Degradation Maximum (%)” value is given as “C (“C” indicates maximum degradation <50%)”. Also, the DC50 at HiBiT-BRM (setting [2]) and at HiBit-BRG1 (setting [3]) was above 1 µM each time. The Dmax on HiBit-BRG1 (setting [4]) was below 50%.
In the case of `Cc1ncsc1-c1ccc(CNC(=O)[C@@H]2C[C@@H](O)CN2C(=O)[C@@H](NC(=O)CCCCCCCCCCCCCCCC(=O)NCc2ccc(CCNc3cc(-c4ccccc4O)nnc3N)cc2)C(C)(C)C)cc1` [Compound 136, N′-[[4-(2-[[3-amino-6-(2-hydroxyphenyl)pyridazin-4-yl]amino]ethyl)phenyl]methyl]-N-[(2S)-1-[(2S,4R)-4-hydroxy-2-([[4-(4-methyl-1,3-thiazol-5-yl)phenyl]methyl]carbamoyl)pyrrolidin-1-yl]-3,3-dimethyl-1-oxobutan-2-yl]heptadecanediamide], the “BRM HiBit Degradation Maximum (%)” value at HiBiT-BRM (setting [1]) is reported as “B (“B” indicates maximum degradation ≥50%)”. Moreover, the DC50 is above 0.1 µM at HiBiT-BRM (setting [2]) and above 1 µM on HiBit-BRG1 (setting [3]). On HiBit-BRG1 (setting [4]), the Dmax was below 50%.
`Nc1nnc(-c2ccccc2O)cc1N1CCN(CC(=O)N2CC(COc3ccc4c(c3)C(=O)N(C3CCC(=O)NC3=O)C4=O)C2)CC1` (stereo not shown) [Compound 81, 5-((1-(2-(4-(3-amino-6-(2-hydroxyphenyl)pyridazin-4-yl)piperazin-1-yl)acetyl)azetidin-3-yl)methoxy)-2-(2,6-dioxopiperidin-3-yl)isoindoline-1,3-dione]: the “BRM HiBit Degradation Maximum (%)” value at HiBiT-BRM (setting [1]) is “C (“C” indicates maximum degradation <50%)”. Besides, the DC50 at HiBiT-BRM (setting [2]) and on HiBit-BRG1 (setting [3]) was above 1 µM in each case. In addition, the Dmax on HiBit-BRG1 (setting [4]) is below 50%.
Take `CN(CCCCCOc1cccc2c1C(=O)N(C1CCC(=O)NC1=O)C2=O)Cc1ccc(CCOc2cc(-c3ccccc3O)nnc2N)cc1` (stereo not shown) [Compound 113, 4-((5-((4-(2-((3-amino-6-(2-hydroxyphenyl)pyridazin-4-yl)oxy)ethyl)benzyl)(methyl)amino)pentyl)oxy)-2-(2,6-dioxopiperidin-3-yl)isoindoline-1,3-dione]: on HiBiT-BRM (setting [1]), the “BRM HiBit Degradation Maximum (%)” value is given as “A (“A” indicates maximum degradation ≥75%)”. The DC50 on HiBiT-BRM (setting [2]) was above 0.01 µM; at HiBit-BRG1 (setting [3]), above 1 µM. Further, at HiBit-BRG1 (setting [4]), the Dmax was below 50%.
